biological target: T1, recombinant Vps34 (Homo sapiens, UniProt Q8NEB9); experiment: Phosphorylation of phosphatidylinositol (PI) by Vps34 in vitro, ADP detected by TR-FRET (HTRF Transcreener ADP); type: biochemical; conditions: 10 μM ATP, 55 μg/ml PI, approximately 3 nM Vps34, 1 hour at ambient temperature; absolute IC50, mean of two independent experiments; read-out: IC50 activity range
T1 construct: purchased Invitrogen PV5126
T1 sequence (Q8NEB9 whole entry): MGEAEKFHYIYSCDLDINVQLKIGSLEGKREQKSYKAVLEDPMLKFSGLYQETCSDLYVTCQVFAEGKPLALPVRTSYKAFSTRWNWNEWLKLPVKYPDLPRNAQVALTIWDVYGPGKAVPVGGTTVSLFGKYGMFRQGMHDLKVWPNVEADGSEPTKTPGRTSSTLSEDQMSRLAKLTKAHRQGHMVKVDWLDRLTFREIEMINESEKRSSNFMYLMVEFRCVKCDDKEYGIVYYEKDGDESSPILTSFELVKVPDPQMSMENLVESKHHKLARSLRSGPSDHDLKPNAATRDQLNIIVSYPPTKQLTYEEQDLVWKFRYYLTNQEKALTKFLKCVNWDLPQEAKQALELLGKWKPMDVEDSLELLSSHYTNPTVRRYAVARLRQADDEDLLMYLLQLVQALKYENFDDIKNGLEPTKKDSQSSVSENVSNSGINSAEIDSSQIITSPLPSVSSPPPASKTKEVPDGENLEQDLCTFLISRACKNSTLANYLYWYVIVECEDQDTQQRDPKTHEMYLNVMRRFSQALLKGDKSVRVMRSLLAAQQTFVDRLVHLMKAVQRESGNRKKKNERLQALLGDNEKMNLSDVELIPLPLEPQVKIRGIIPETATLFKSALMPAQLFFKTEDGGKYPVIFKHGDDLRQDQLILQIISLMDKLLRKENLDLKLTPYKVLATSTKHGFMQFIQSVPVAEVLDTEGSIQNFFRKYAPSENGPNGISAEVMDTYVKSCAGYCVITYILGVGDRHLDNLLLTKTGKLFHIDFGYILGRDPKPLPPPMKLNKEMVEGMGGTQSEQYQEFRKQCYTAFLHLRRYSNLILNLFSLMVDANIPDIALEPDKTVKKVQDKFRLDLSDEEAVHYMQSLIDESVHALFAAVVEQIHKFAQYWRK

IC50 [nM]	Structure (SMILES)
10 to 100	CC(C)C(=O)CN1c2nc(N3CC4CCC(C3)O4)c(F)c(=O)n2CC[C@H]1C(F)(F)F [Example 274, (S)-3-Fluoro-9-(3-methyl-2-oxobutyl)-2-(8-oxa-3-aza-bicyclo[3.2.1]oct-3-yl)-8-trifluoromethyl-6,7,8,9-tetrahydro-pyrimido[1,2-a]-pyrimidin-4-one]
< 10	C[C@@H]1COCCN1c1cc(=O)n2c(n1)N(CC(=O)c1cccc(F)n1)[C@H](C(F)(F)F)CC2 [Example 63, (S)-9-[2-(6-Fluoro-pyridin-2-yl)-2-oxo-ethyl]-2-((R)-3-methyl-morpholin-4-yl)-8-trifluoromethyl-6,7,8,9-tetrahydro-pyrimido[1,2-a]-pyrimidin-4-one]
< 10	C[C@@H]1COCCN1c1cc(=O)n2c(n1)N(c1ccnc(C3CC3)c1)[C@H](C(F)(F)F)CC2 [Example 89, (S)-9-(2-Cyclopropyl-pyridin-4-yl)-2-((R)-3-methylmorpholin-4-yl)-8-trifluoromethyl-6,7,8,9-tetrahydro-pyrimido[1,2-a]-pyrimidin-4-one]
10 to 100	CC(=O)CN1CC[C@H](C(F)(F)F)n2c1nc(N1CCOC[C@H]1C)cc2=O [Example 145, (R)-2-((R)-3-Methyl-morpholin-4-yl)-9-(2-oxopropyl)-6-trifluoromethyl-6,7,8,9-tetrahydro-pyrimido[1,2-a]-pyrimidin-4-one]
< 10	C[C@@H]1COCCN1c1cc(=O)n2c(n1)N(Cc1nc(C(C)(C)C)no1)[C@H](C(F)(F)F)CC2 [Example 228, (S)-9-(3-tert-Butyl-[1,2,4]oxadiazol-5-yl-methyl)-2-((R)-3-methylmorpholin-4-yl)-8-trifluoromethyl-6,7,8,9-tetrahydro-pyrimido[1,2-a]-pyrimidin-4-one]
10 to 100	C[C@@H]1COCCN1c1cc(=O)n2c(n1)N(Cc1cnco1)CC[C@@H]2C(F)(F)F [Example 117, (R)-2-((R)-3-Methyl-morpholin-4-yl)-9-oxazol-5-ylmethyl-6-trifluoromethyl-6,7,8,9-tetrahydro-pyrimido[1,2-a]-pyrimidin-4-one]
< 10	CC(C)c1noc(CN2c3nc(N4CCOC[C@H]4C)c(F)c(=O)n3CC[C@H]2C(F)(F)F)n1 [Example 248, (S)-3-Fluoro-9-(3-isopropyl-[1,2,4]oxadiazol-5-yl-methyl)-2-((R)-3-methylmorpholin-4-yl)-8-trifluoromethyl-6,7,8,9-tetrahydro-pyrimido[1,2-a]-pyrimidin-4-one]
< 10	COc1cc(N2CC[C@H](C(F)(F)F)n3c2nc(N2CCOC[C@H]2C)cc3=O)ccn1 [Example 109, (R)-9-(2-Methoxy-pyridin-4-yl)-2-((R)-3-methylmorpholin-4-yl)-6-trifluoromethyl-6,7,8,9-tetrahydro-pyrimido[1,2-a]-pyrimidin-4-one]
< 10	C[C@@H]1COCCN1c1cc(=O)n2c(n1)N(c1ccc(OC(F)F)nc1)[C@H](C(F)(F)F)CC2 [Example 124, (S)-9-(6-Difluoromethoxy-pyridin-3-yl)-2-((R)-3-methylmorpholin-4-yl)-8-trifluoromethyl-6,7,8,9-tetrahydro-pyrimido[1,2-a]-pyrimidin-4-one]
< 10	C[C@@H]1COCCN1c1cc(=O)n2c(n1)N(Cc1cc(Cl)ccn1)[C@H](C(F)(F)F)CC2 [Example 65, (S)-9-(4-Chloro-pyridin-2-ylmethyl)-2-((R)-3-methyl-mopholin-4-yl)-8-trifluoromethyl-6,7,8,9-tetrahydro-pyrimido[1,2-a]-pyrimidin-4-one]
< 10	C[C@@H]1COCCN1c1nc2n(c(=O)c1F)[C@@H](C(F)(F)F)CCN2CC(=O)c1cccnc1 [Example 126, (R)-3-Fluoro-2-((R)-3-methylmorpholin-4-yl)-9-(2-oxo-2-pyridin-3-ylethyl)-6-trifluoromethyl-6,7,8,9-tetrahydro-pyrimido[1,2-a]-pyrimidin-4-one]
< 10	COC(CN1c2nc(N3CCOC[C@H]3C)cc(=O)n2CC[C@H]1C(F)(F)F)C(C)C (single isomer, unassigned) [Example 288]
10 to 100	CC1CN(c2cc(=O)n3c(n2)N(Cc2ccccc2)[C@H](C(F)(F)F)CC3)CCO1 (single isomer, unassigned) [Example 191]
10 to 100	C[C@@H]1COCCN1c1cc(=O)n2c(n1)N(Cc1ccno1)CC[C@@H]2C(F)(F)F [Example 105, (R)-9-Isoxazol-5-yl-methyl-2-((R)-3-methylmorpholin-4-yl)-6-trifluoromethyl-6,7,8,9-tetrahydro-pyrimido[1,2-a]-pyrimidin-4-one]
< 10	C[C@@H]1COCCN1c1cc(=O)n2c(n1)N(CC(=O)N1CCCCO1)[C@H](C(F)(F)F)CC2 [Example 318, (S)-2-((R)-3-Methyl-morpholin-4-yl)-9-(2-[1,2]oxazinan-2-yl-2-oxoethyl)-8-trifluoromethyl-6,7,8,9-tetrahydropyrimido-[1,2-a]pyrimidin-4-one]
< 10	C[C@@H]1COCCN1c1cc(=O)n2c(n1)N(CC1(C3CC3)CCO1)[C@H](C(F)(F)F)CC2 (single isomer, unassigned) [Example 308]

IC50 [nM]	Structure (SMILES)
< 10	CC(C)=CCN1c2nc(N3CCOC[C@H]3C)cc(=O)n2CC[C@H]1C(F)(F)F [Example 266, (S)-9-(3-Methyl-but-2-enyl)-2-((R)-3-methyl-morpholin-4-yl)-8-trifluoromethyl-6,7,8,9-tetrahydro-pyrimido[1,2-a]-pyrimidin-4-one]
< 10	C[C@@H]1COCCN1c1cc(=O)n2c(n1)N(CC(=O)C1CC1)[C@H](C(F)(F)F)CC2 [Example 241, (S)-9-(2-Cyclopropyl-2-oxoethyl)-2-((R)-3-methylmorpholin-4-yl)-8-trifluoromethyl-6,7,8,9-tetrahydro-pyrimido[1,2-a]-pyrimidin-4-one]
< 10	C[C@@H]1COC[C@@H](C)N1c1cc(=O)n2c(n1)N(c1ccnc(Cl)c1)[C@H](C(F)(F)F)CC2 [Example 159, (S)-9-(2-Chloro-pyridin-4-yl)-2-((3R,5R)-3,5-dimethyl-morpholin-4-yl)-8-trifluoromethyl-6,7,8,9-tetrahydro-pyrimido[1,2-a]-pyrimidin-4-one]
< 10	C[C@@H]1COCCN1c1nc2n(c(=O)c1F)CC[C@@H](C(F)(F)F)N2CC(=O)C1CC1 [Example 6, (S)-9-(2-Cyclopropyl-2-oxoethyl)-3-fluoro-2-((R)-3-methyl-morpholin-4-yl)-8-trifluoromethyl-6,7,8,9-tetrahydro-pyrimido[1,2-a]-pyrimidin-4-one]
10 to 100	C[C@@H]1COC[C@@H](C)N1c1cc(=O)n2c(n1)N(Cc1cnc(Cl)s1)[C@H](C(F)(F)F)CC2 [Example 312, (S)-9-(2-Chloro-thiazol-5-ylmethyl)-2-((3R,5R)-3,5-dimethyl-morpholin-4-yl)-8-trifluoromethyl-6,7,8,9-tetrahydro-pyrimido[1,2-a]-pyrimidin-4-one]
< 10	CC(C)C(F)CN1c2nc(N3CCOC[C@H]3C)c(F)c(=O)n2CC[C@H]1C(F)(F)F (single isomer, unassigned) [Example 328]
< 10	C[C@@H]1COCCN1c1nc2n(c(=O)c1F)CC[C@@H](C(F)(F)F)N2c1ccc(C2CC2)nc1 [Example 43, (S)-9-(6-Cyclopropyl-pyridin-3-yl)-3-fluoro-2-((R)-3-methyl-morpholin-4-yl)-8-trifluoromethyl-6,7,8,9-tetrahydro-pyrimido[1,2-a]-pyrimidin-4-one]
< 10	C[C@@H]1COCCN1c1cc(=O)n2c(n1)N(Cc1ncco1)[C@](C)(C(F)(F)F)CC2 [Example 239, (S)-8-Methyl-2-((R)-3-methylmorpholin-4-yl)-9-oxazol-2-ylmethyl-8-trifluoromethyl-6,7,8,9-tetrahydro-pyrimido[1,2-a]-pyrimidin-4-one]
< 10	C[C@@H]1COCCN1c1cc(=O)n2c(n1)N(CC(=O)OC1CCCC1)[C@H](C(F)(F)F)CC2 [Example 243, [(S)-8-((R)-3-Methyl-morpholin-4-yl)-6-oxo-2-trifluoromethyl-3,4-dihydro-2H,6H-pyrimido[1,2-a]-pyrimidin-1-yl]acetic acid cyclopentyl ester]
< 10	CON(C)C(=O)CN1c2nc(N3CCOC[C@H]3C)c(F)c(=O)n2CC[C@H]1C(F)(F)F [Example 23, 2-[(S)-7-Fluoro-8-((R)-3-methylmorpholin-4-yl)-6-oxo-2-trifluoromethyl-3,4-dihydro-2H,6H-pyrimido[1,2-a]-pyrimidin-1-yl]-N-methoxy-N-methyl-acetamide]
< 10	C[C@@H]1COCCN1c1cc(=O)n2c(n1)N(c1ccncc1)[C@H](C(F)(F)F)CC2 [Example 198, (S)-2-((R)-3-Methyl-morpholin-4-yl)-9-pyridin-4-yl-8-trifluoromethyl-6,7,8,9-tetrahydro-pyrimido[1,2-a]-pyrimidin-4-one]
< 10	C[C@@H]1COCCN1c1cc(=O)n2c(n1)N(Cc1nc(C3CC3)no1)[C@H](C(F)(F)F)CC2 [Example 227, (S)-9-(3-Cyclopropyl-[1,2,4]oxadiazol-5-yl-methyl)-2-((R)-3-methylmorpholin-4-yl)-8-trifluoromethyl-6,7,8,9-tetrahydro-pyrimido[1,2-a]-pyrimidin-4-one]
< 10	C[C@@H]1COCCN1c1cc(=O)n2c(n1)N(CC(=O)C1CC1)CC[C@@H]2C(F)(F)F [Example 118, (R)-9-(2-Cyclopropyl-2-oxoethyl)-2-((R)-3-methylmorpholin-4-yl)-6-trifluoromethyl-6,7,8,9-tetrahydro-pyrimido[1,2-a]-pyrimidin-4-one]
< 10	C[C@@H]1COCCN1c1cc(=O)n2c(n1)N(Cc1nnc(C(F)(F)F)o1)[C@H](C(F)(F)F)CC2 [Example 140, (S)-2-((R)-3-Methyl-morpholin-4-yl)-8-trifluoromethyl-9-(5-trifluoromethyl-[1,3,4]oxadiazol-2-yl-methyl)-6,7,8,9-tetrahydro-pyrimido[1,2-a]-pyrimidin-4-one]
< 10	Cc1nc(CN2c3nc(N4CCOC[C@H]4C)cc(=O)n3CC[C@H]2C(F)(F)F)no1 [Example 2, (S)-2-((R)-3-Methyl-morpholin-4-yl)-9-(5-methyl-[1,2,4]oxadiazol-3-yl-methyl)-8-trifluoromethyl-6,7,8,9-tetrahydro-pyrimido[1,2-a]-pyrimidin-4-one]

Source: patent US11739100B2, “2,3-dihydro-1h-imidazo{1,2-a}pyrimidin-5-one and this 1,2,3,4-tetrahydropyrimido{1,2-a}pyrimidin-6-one derivatives comprising a substituted morpholine, preparation thereof and pharmaceutical use thereof” (SANOFI, priority 2012, dated 2023)
